# Measurements: ChEMBL document CHEMBL1156612, “The chemical and hydroxyl radical scavenging activity changes of ginsenoside-Rb1 by heat processing” (Bioorg Med Chem Lett, 2008)
# What was measured:
# Type in all cases: functional
# Set-up in all cases: scale not given: the % may be the effect or the level left
# [1] = Antioxidant activity assessed as inhibition of hydroxyl radical production after heat processing
# [2] = Antioxidant activity assessed as inhibition of hydroxyl radical production at 0.5% concentration%
# [3] = Antioxidant activity assessed as inhibition of hydroxyl radical production at 0.05% concentration%
compound,measurement,setting,value
CC(C)=CCC[C@](C)(O[C@@H]1O[C@H](CO[C@@H]2O[C@H](CO)[C@@H](O)[C@H](O)[C@H]2O)[C@@H](O)[C@H](O)[C@H]1O)[C@H]1CC[C@]2(C)[C@@H]1[C@H](O)C[C@@H]1[C@@]3(C)CC[C@H](O[C@@H]4O[C@H](CO)[C@@H](O)[C@H](O)[C@H]4O[C@@H]4O[C@H](CO)[C@@H](O)[C@H](O)[C@H]4O)C(C)(C)[C@@H]3CC[C@]12C,Activity,[1],42%
same,Activity,[2],24%
same,Activity,[3],47%
